PubChem BioAssay AID602437 (Southern Research Specialized Biocontainment Screening …, 2012)
Where “and” joins values, the source holds several entries; their conditions need not be identical. Equal values may be shown once. Calls of active or inactive are those of the source. No rule for the calls is given here.

Tests used:
[1] = test system: M. tuberculosis H37Rv growth inhibition, no glycerol; experiment: H37Rv growth blockers, purified and synthesized samples, set 8, confirmation (AID 602437); settings: for IC50: measured here: IC50 replicates
[2] = as above; settings: M. tuberculosis H37Rv growth inhibition, no glycerol; at 100 µM (top of the series)

Structure (SMILES) | IC50 [1] | IC90 [1] [µM] | inhibition [2]
O=C(c1ccc(CNc2c(N3CCCC3)c(=O)c2=O)cc1)N1CCC(c2ccccc2)CC1 | 76.1 µM | – | –
CCC(C)NC(=O)CSc1nc2ccccc2c(=O)[nH]1 (stereo not given) | 4.95 µM | 7.63 | –
COc1ccc(N2CCN(C(=O)c3ccc(CNC(=O)NCc4ccc(Cl)cc4)cc3)CC2)cc1 | – | – | 2.39% (inactive)
CC1CCCN(C(=O)C2CCC(CNc3c(N4CCCCC4)c(=O)c3=O)CC2)C1 (stereo not given) | 34.9 µM | – | –
CCOC(=O)N1CCC(Nc2c(Nc3cccc(CC)c3)c(=O)c2=O)CC1 | 36.5 µM | – | –
O=C(CSc1nc2ccccc2c(=O)[nH]1)NC1CCCCC1 | 0.204 µM | < 0.27 | –
CC(=O)c1ccc(NC(=O)c2ccc(CNc3c(N4CCOCC4)c(=O)c3=O)cc2)cc1 | 63.7 µM | – | –
CC(C)CCNC(=O)CSc1nc2ccccc2c(=O)[nH]1 | 0.651 µM | 1.01 | –
O=C(c1ccc(CNc2c(N3CCOCC3)c(=O)c2=O)cc1)N1CC=C(c2ccccc2)CC1 | 1.71 µM | 8.36 | –
O=C(C1CCC(CNc2c(N3CCCCC3)c(=O)c2=O)CC1)N1CCCCC1 (stereo not given) | 27.5 µM | – | –
O=C(NCCc1ccc(Cl)cc1)C1CCC(CNc2c(N3CCCCC3)c(=O)c2=O)CC1 (stereo not given) | 17.6 µM | – | –
CC(C)CCNC(=O)CSc1nc2c(c(=O)[nH]1)CCCC2 | 4.43 µM | 6.58 | –
O=C(CSc1nc2ccccc2c(=O)[nH]1)NC1CCOCC1 | 20.5 µM | 33.8 | –
O=C(NCCc1ccc(Cl)cc1)c1ccc(CNc2c(N3CCOCC3)c(=O)c2=O)cc1 | 5.66 µM and 14.4 µM | – | –
O=C(c1ccc(CNc2c(N3CCCC3)c(=O)c2=O)cc1)N1CCN(c2ccccc2)CC1 | 70.2 µM | – | –
O=C(CSc1nc2c(c(=O)[nH]1)CCCC2)NC1CCCCC1 | 2.3 µM | 3.45 | –
COC(=O)C(Cc1ccccc1)NC(=O)CSc1nc2ccccc2c(=O)[nH]1 (stereo not given) | – | – | 2.32% (inactive)
CC1CCCN(c2c(NCc3ccc(C(=O)N4CC=C(c5ccccc5)CC4)cc3)c(=O)c2=O)C1 (stereo not given) | 7.72 µM | 9.7 | –
O=C(CSc1nc2c(c(=O)[nH]1)CN(Cc1ccccc1)CC2)NC1CCCCC1 | – | – | -4.57% (inactive)
O=C(c1ccc(CNc2c(N3CCOCC3)c(=O)c2=O)cc1)N1CCN(c2ccccc2)CC1 | 3.8 µM | – | –
O=C(c1ccc(CNc2c(N3CCCC3)c(=O)c2=O)cc1)N1CC=C(c2ccccc2)CC1 | 4.52 µM and 4.4 µM | – | –
O=C(c1ccc(CNc2c(N3CCOCC3)c(=O)c2=O)cc1)N1CCC(c2ccccc2)CC1 | 3.56 µM | – | –

Structure (SMILES) | IC50 [1] | IC90 [1] [µM] | inhibition [2]
CC1CCCN(C(=O)c2ccc(CNc3c(N4CCCCC4)c(=O)c3=O)cc2)C1 (stereo not given) | 5.73 µM | – | –
CC(C)OC(=O)CSc1ncnc2c1cnn2-c1ccccc1 | 12 µM | – | –
CCOC(=O)CSc1ncnc2c1cnn2-c1ccccc1 | 4.02 µM | 9.98 | –
COCCNC(=O)CSc1nc2ccccc2c(=O)[nH]1 | – | – | -10.3% (inactive)
CC1CC(C)CN(C(=O)C2CCC(CNc3c(N4CCCCC4)c(=O)c3=O)CC2)C1 (stereo not given) | 7.79 µM and 24.7 µM | – | –
CCOC(=O)CSc1ncnc2c1cnn2-c1ccc(C)cc1C | 2.64 µM | 4.58 | –
CC(C)CCNC(=O)CSc1nc2c(c(=O)[nH]1)CCCCC2 | 99.2 µM | – | –
O=C(CSc1nc2c(c(=O)[nH]1)CCC2)NC1CCCCC1 | 2.24 µM | 3.23 | –
Cc1cccc(N2CCN(C(=O)c3ccc(CNc4c(N5CCC(C)CC5)c(=O)c4=O)cc3)CC2C)c1 (stereo not given) | 27.7 µM | 46.3 | –
CCOc1ccc(NC(=O)c2ccc(CNc3c(N4CCCC4)c(=O)c3=O)cc2)cc1 | – | – | -0.36% (inactive)
COC(=O)CSc1ncnc2c1cnn2-c1ccc(C)cc1C | 2.78 µM | 3.71 | –
O=C(NCc1ccc(C(=O)N2CCN(c3ccccc3)CC2)cc1)NC1CCCCC1 | – | – | 2.51% (inactive)
CC1CC(C)CN(C(=O)c2ccc(CNc3c(N4CCCC4)c(=O)c3=O)cc2)C1 (stereo not given) | 12.8 µM | – | –
COc1ccc(NC(=O)NCc2ccc(C(=O)N3CCC(c4ccccc4)CC3)cc2)cc1 | – | – | 14% (inactive)
O=C(NCc1ccc(C(=O)N2CCC(c3ccccc3)CC2)cc1)NC1CCCCC1 | 67.7 µM | 86.4 | –
O=C(c1ccc(CNc2c(N3CCCC3)c(=O)c2=O)cc1)N1CCc2ccccc2C1 | 7.79 µM | – | –
COc1ccc(N2CCN(C(=O)c3ccc(CNc4c(N5CCCC(C)C5)c(=O)c4=O)cc3)CC2)cc1 (stereo not given) | 25.4 µM | 41.4 | –
CC1CCN(C(=O)c2ccc(CNc3c(N4CCCC4)c(=O)c3=O)cc2)CC1 | 10.1 µM | – | –
COc1ccc(N2CCN(C(=O)c3ccc(CNc4c(N5CCOCC5)c(=O)c4=O)cc3)CC2)cc1 | 8.95 µM and 8.65 µM | – | –
Cc1cccc(N2CCN(C(=O)c3ccc(CNc4c(N5CCC(C)CC5)c(=O)c4=O)cc3)CC2)c1C | 42.1 µM | 56.9 | –
O=C(NCc1ccc(C(=O)N2CCC(c3ccccc3)CC2)cc1)Nc1ccc(Cl)cc1 | 72.2 µM | 92.5 | –
